US10934282B2, “Heteroaromatic modulators of the retinoid-related orphan receptor gamma” (LEO PHARMA A/S, priority 2016, dated 2021)

Tests used:
[1] = target: T1, human RORgt nuclear receptor (RORgT ligand binding domain protein) (Homo sapiens, UniProt P51449); assay: ROR-gamma binding assay (Scintillation Proximity Assay, displacement of [3H]-25-hydroxycholesterol); details: EC50, SPA, 15 nM [3H]-25-Hydroxycholesterol, RORgT LBD 12 nM
T1 construct: purchased Proteros Biostructures GmbH
T1 sequence (P51449 with tags, fused parts or gaps): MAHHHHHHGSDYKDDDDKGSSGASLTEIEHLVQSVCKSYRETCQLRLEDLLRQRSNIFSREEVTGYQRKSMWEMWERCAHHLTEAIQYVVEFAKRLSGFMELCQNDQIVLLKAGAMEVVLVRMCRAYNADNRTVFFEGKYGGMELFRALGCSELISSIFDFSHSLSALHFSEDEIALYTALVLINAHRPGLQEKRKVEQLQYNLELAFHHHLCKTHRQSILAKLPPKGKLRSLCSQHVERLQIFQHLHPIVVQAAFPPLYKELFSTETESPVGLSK
Procedure: This assay is used to evaluate the binding affinity of compounds to the ligand-binding pocket of the human RORgt nuclear receptor based on displacement of a radio-ligand. The EC50 values are calculated using a four parameter fit. Compounds binding with high affinity to RORgt will have low EC50 values.
The assay is a Scintillation Proximity Assay (SPA) that involves competition between an unlabeled test compound and tritium-labeled 25-hydroxycholesterol for binding to RORgT ligand binding domain (LBD) protein immobilized on the surface of SPA beads. These beads contain a scintillant that emits light if excited by a radioactive particle, and this light is detected using a scintillation counter. In this assay, tritium-labelled 25-hydroxycholesterol is used as radiotracer.
400 nL of titrated test and reference compounds in DMSO were transferred by the Echo liquid handling system to a 384-well assay plate followed by addition of 5 μL [3H]-25-Hydroxycholesterol (Perkin Elmer) and 35 μL diluted RORgT LBD protein with the following amino acid sequence (HIS-FLG-tag): MAHHHHHHGSDYKDDDDKGSSGASLTEIEHLVQSVCKSYRETCQLRLEDLLRQRSNIFSREEVTGYQRKSMWEMWERCAHHLTEAIQYVVEFAKRLSGFMELCQNDQIVLLKAGAMEVVLVRMCRAYNADNRTVFFEGKYGGMELFRALGCSELISSIFDFSHSLSALHFSEDEIALYTALVLINAHRPGLQEKRKVEQLQYNLELAFHHHLCKTHRQSILAKLPPKGKLRSLCSQHVERLQIFQHLHPIVVQAAFPPLYKELFSTETESPVGLSK (SEQ ID NO: 1) (Purchased from Proteros Biostructures GmbH). After 30 min of preincubation, 40 μL of HIS-TAG PVT SPA beads (Perkin Elmer) were added. The plates were then incubated for minimum 4 hours at room temperature in darkness before measuring the SPA signal using a MicroBeta plate scintillation counter. Final assay conditions were: 50 mM HEPES pH 7.4, 150 mM NaCl, 5 mM MgCl2, 0.1% BSA, 4 μg/well HIS-TAG PVT SPA Beads, 30 ng/well RORgT LBD (equal to a final concentration of 12 nM), 15 nM [^3H]-25-Hydroxycholesterol, 0.5% DMSO and varying concentrations of test compound in a total volume of 80 μL/well. EC50 values were calculated using a 4-parameter non-linear regression curve-fitting model.

[2] = tested on: IL-17A levels in human peripheral blood; assay: tissue or blood; type: cell-based; details: 72 h, read-out: Human Whole blood IL-17A (nM)
[3] = tested on: IL-17A in Human peripheral mononuclear cells; assay: Human PBMC IL-17A assay; type: cell-based; details: 72 h, EC50, antiCD3/antiCD28-coated beads, 3 days, alpha-LISA
Procedure: This assay measures the IL-17A inhibitory potential of test compounds in Human peripheral mononuclear cells.
Peripheral blood mononuclear cells (PBMC) were isolated from human buffy coats using density grade centrifugation (Lymphoprep, Medinor), washed twice in PBS and frozen at −150° C. for later use.
Test compounds were diluted in DMSO and 70 nL of titrated test and reference compounds were transferred by the Echo liquid handling system to a 384-well assay plate in to give a final concentration of 0.1% DMSO in the wells.
The PBMC were thawed, washed and suspended in RPMI-1640 supplemented with pen/strep, glutamax and 10% bovine calf serum. The cells were mixed with antiCD3/antiCD28-coated beads (1 cells pr one bead) (Milteney T-cell expansion kit), and immediately thereafter the cells were pipetted to the plate at 130,000c/well. The plate was incubated for 3 days in humidified air/CO2 (95%/5%) On day 3 the level of IL-17A in the culture supernatant is measured using alpha-LISA kit (Perkin Elmer). Cell viability was measured by adding 6 uL pr well Prestoblue© (Life Technologies) and incubating for 2 hours followed by fluorescent measurement (Ex535/Em615). EC50 values were calculated using a 4-parameter non-linear regression curve-fitting model. Donors may be pre-screened in order to select PBMC with a high secretion of IL-17A.

Question: Which results are given for `COCc1nnc(Nc2cc(Cl)cc(CN3CCN(C(=O)C4CCCC4)[C@@H](C)C3)c2C)o1` [Example 13, [(2S)-4-[[5-chloro-3-[[5-(methoxymethyl)-1,3,4-oxadiazol-2-yl]amino]-2-methyl-phenyl]methyl]-2-methyl-piperazin-1-yl]-cyclopentyl-methanone]?
Answer: EC50 [1]: 14.7 nM; EC50 [2]: 112 nM; EC50 [3]: 48.9 nM

Question: Which results are given for `Cc1cc(CN2CCN(C(=O)C3CCC3)[C@@H](C)C2)c(C)c(Nc2nnc(C)o2)c1` [Example 14, cyclobutyl-[(2S)-4-[[2,5-dimethyl-3-[(5-methyl-1,3,4-oxadiazol-2-yl)amino]phenyl]methyl]-2-methyl-piperazin-1-yl]methanone]?
Answer: EC50 [1]: 61.1 nM; EC50 [2]: 372 nM; EC50 [3]: 185 nM

Question: For `Cc1cc(CN2CCN(C(=O)C3CCC3)[C@@H](C)C2)c(C)c(Nc2nnc(CC#N)o2)c1` [Example 15, 2-[5-[3-[[(3S)-4-(cyclobutanecarbonyl)-3-methyl-piperazin-1-yl]methyl]-2,5-dimethyl-anilino]-1,3,4-oxadiazol-2-yl]acetonitrile], which EC50 [1] is on record?
Answer: 63.8 nM

Question: And the EC50 [2]?
Answer: 421 nM

Question: What about the EC50 [3] of the same compound?
Answer: 101 nM

Question: How did the EC50 [1] turn out when `Cc1cc(CN2CCN(C(=O)C3CC3)[C@@H](C)C2)c(C)c(Nc2nnc(CC#N)o2)c1` [Example 16, 2-[5-[3-[[(3S)-4-(cyclopropanecarbonyl)-3-methyl-piperazin-1-yl]methyl]-2,5-dimethyl-anilino]-1,3,4-oxadiazol-2-yl]acetonitrile] was run?
Answer: 223 nM

Question: And the EC50 [2]?
Answer: 206 nM

Question: And the EC50 [3]?
Answer: 237 nM

Question: Which results are given for `Cc1cc(CN2CCN(C(=O)C3CCC(F)(F)C3)[C@@H](C)C2)c(C)c(Nc2nnc(CC#N)o2)c1` (stereo partly drawn) [Example 17, 2-[5-[3-[[(3S)-4-(3,3-difluorocyclopentanecarbonyl)-3-methyl-piperazin-1-yl]methyl]-2,5-dimethyl-anilino]-1,3,4-oxadiazol-2-yl]acetonitrile]?
Answer: EC50 [1]: 54.5 nM; EC50 [2]: 131 nM; EC50 [3]: 230 nM

Question: How did the EC50 [1] turn out when `Cc1c(CN2CCN(C(=O)C3CCCC3)[C@@H](C)C2)cc(Cl)cc1Nc1nnc(CC#N)o1` [Example 18, 2-[5-[5-chloro-3-[[4-(cyclopentanecarbonyl)-3-methyl-piperazin-1-yl]methyl]-2-methyl-anilino]-1,3,4-oxadiazol-2-yl]acetonitrile] was run?
Answer: 21.2 nM

Question: What about the EC50 [2] of the same compound?
Answer: 203 nM

Question: And the EC50 [3]?
Answer: 69.8 nM

Question: How did the EC50 [1] turn out when `Cc1cc(CN2CCN(C(=O)C3CCC3)[C@@H](C)C2)c(C)c(Nc2nnc([C@@H](C)O)o2)c1` [Example 19, cyclobutyl-[(2S)-4-[[3-[[5-[(1R)-1-hydroxyethyl]-1,3,4-oxadiazol-2-yl]amino]-2,5-dimethyl-phenyl]methyl]-2-methyl-piperazin-1-yl]methanone] was run?
Answer: 92.3 nM

Question: What about the EC50 [2] of the same compound?
Answer: 216 nM

Question: And the EC50 [3]?
Answer: 117 nM

Question: How did the EC50 [1] turn out when `Cc1cc(CN2CCN(C(=O)C3CCC3)[C@@H](C)C2)c(C)c(Nc2nnc([C@H](C)O)o2)c1` [Example 20, cyclobutyl-[(2S)-4-[[3-[[5-[(1S)-1-hydroxyethyl]-1,3,4-oxadiazol-2-yl]amino]-2,5-dimethyl-phenyl]methyl]-2-methyl-piperazin-1-yl]methanone] was run?
Answer: 113 nM

Question: What about the EC50 [2] of the same compound?
Answer: 259 nM

Question: What about the EC50 [3] of the same compound?
Answer: 189 nM

Question: What does the source list for `CCC(F)(F)C(=O)N1CCN(Cc2cc(C)cc(Nc3nnc([C@@H](C)O)o3)c2C)C[C@@H]1C` [Example 21, 2,2-difluoro-1-[(2S)-4-[[3-[[5-[(1R)-1-hydroxyethyl]-1,3,4-oxadiazol-2-yl]amino]-2,5-dimethyl-phenyl]methyl]-2-methyl-piperazin-1-yl]butan-1-one]?
Answer: EC50 [1]: 71.7 nM; EC50 [2]: 251 nM; EC50 [3]: 180 nM

Question: `Cc1cc(CN2CCN(C(=O)C3CC3)[C@@H](C)C2)c(C)c(Nc2nnc([C@@H](C)O)o2)c1` [Example 22, cyclopropyl-[(2S)-4-[[3-[[5-[(1R)-1-hydroxyethyl]-1,3,4-oxadiazol-2-yl]amino]-2,5-dimethyl-phenyl]methyl]-2-methyl-piperazin-1-yl]methanone] was tested. Which EC50 [1] did it give?
Answer: 169 nM

Question: What about the EC50 [2] of the same compound?
Answer: 355 nM

Question: What about the EC50 [3] of the same compound?
Answer: 254 nM

Question: How did the EC50 [1] turn out when `Cc1cc(CN2CCN(C(=O)C3CC3C)[C@@H](C)C2)c(C)c(Nc2nnc([C@@H](C)O)o2)c1` (stereo partly drawn) [Example 23, [(2S)-4-[[3-[[5-[(1R)-1-hydroxyethyl]-1,3,4-oxadiazol-2-yl]amino]-2,5-dimethyl-phenyl]methyl]-2-methyl-piperazin-1-yl]-(2-methylcyclopropyl)methanone] was run?
Answer: 125 nM

Question: What about the EC50 [2] of the same compound?
Answer: 238 nM

Question: What about the EC50 [3] of the same compound?
Answer: 368 nM

Question: What does the source list for `Cc1cc(CN2CCN(C(=O)C3CCCC3)[C@@H](C)C2)c(C)c(Nc2nnc([C@@H](C)O)o2)c1` [Example 24, cyclopentyl-[(2S)-4-[[3-[[5-[(1R)-1-hydroxyethyl]-1,3,4-oxadiazol-2-yl]amino]-2,5-dimethyl-phenyl]methyl]-2-methyl-piperazin-1-yl]methanone]?
Answer: EC50 [1]: 38.6 nM; EC50 [2]: 112 nM; EC50 [3]: 35.9 nM

Question: With `Cc1cc(CN2CCN(C(=O)C3CCC(F)(F)C3)[C@@H](C)C2)c(C)c(Nc2nnc([C@@H](C)O)o2)c1` (stereo partly drawn) [Example 25, (3,3-difluorocyclopentyl)-[(2S)-4-[[3-[[5-[(1R)-1-hydroxyethyl]-1,3,4-oxadiazol-2-yl]amino]-2,5-dimethyl-phenyl]methyl]-2-methyl-piperazin-1-yl]methanone] as the compound, how does the EC50 [1] read?
Answer: 159 nM

Question: What about the EC50 [2] of the same compound?
Answer: 191 nM

Question: What about the EC50 [3] of the same compound?
Answer: 258 nM

Question: What does the source list for `Cc1cc(CN2CCN(C(=O)CC3CCC3)[C@@H](C)C2)c(C)c(Nc2nnc([C@@H](C)O)o2)c1` [Example 26, 2-cyclobutyl-1-[(2S)-4-[[3-[[5-[(1R)-1-hydroxyethyl]-1,3,4-oxadiazol-2-yl]amino]-2,5-dimethyl-phenyl]methyl]-2-methyl-piperazin-1-yl]ethanone]?
Answer: EC50 [1]: 58.2 nM; EC50 [2]: 119 nM; EC50 [3]: 91.3 nM

Question: With `Cc1c(CN2CCN(C(=O)C3CCC3)[C@@H](C)C2)cc(C(F)F)cc1Nc1nnc([C@H](C)O)o1` [Example 27, cyclobutyl-[(2S)-4-[[5-(difluoromethyl)-3-[[5-[(1S)-1-hydroxyethyl]-1,3,4-oxadiazol-2-yl]amino]-2-methyl-phenyl]methyl]-2-methyl-piperazin-1-yl]methanone] as the compound, how does the EC50 [1] read?
Answer: 95.9 nM

Question: And the EC50 [2]?
Answer: 457 nM

Question: What about the EC50 [3] of the same compound?
Answer: 425 nM

Question: Which results are given for `Cc1cc(CN2CCN(C(=O)OC(C)(C)C)[C@@H](C)C2)c(C)c(Nc2nnc([C@H]3C[C@@H](O)C3)o2)c1` [Example 29, tert-butyl (2S)-4-[[3-[[5-(3-hydroxycyclobutyl)-1,3,4-oxadiazol-2-yl]amino]-2,5-dimethyl-phenyl]methyl]-2-methyl-piperazine-1-carboxylate]?
Answer: EC50 [1]: 37.8 nM; EC50 [2]: 422 nM; EC50 [3]: 117 nM

Question: `Cc1cc(CN2CCN(C(=O)OC(C)(C)C)[C@@H](C)C2)c(C)c(Nc2nnc(-c3cnnn3C)o2)c1` [Example 30, tert-butyl (2S)-4-[[2,5-dimethyl-3-[[5-(3-methyltriazol-4-yl)-1,3,4-oxadiazol-2-yl]amino]phenyl]methyl]-2-methyl-piperazine-1-carboxylate] was tested. Which EC50 [1] did it give?
Answer: 31.2 nM

Question: What about the EC50 [2] of the same compound?
Answer: 239 nM

Question: What about the EC50 [3] of the same compound?
Answer: 93.6 nM
